How the values were obtained:
[1] = test system: AHAS enzyme from wild type Gunner wheat; assay: in vitro AHAS enzyme activity, enzyme extracted from wild type wheat; assay type: biochemical, Triticum aestivum; design: unit of the concentration uncertain
Source text: (§1) Both the AP205CL and AP602CL wheat plants are tolerant to imidazolinone herbicides due to a mutation of the AHAS enzyme that is resistant to inhibition by these herbicides in vitro. […] The values in FIG. 1 are expressed as a percent of uninhibited activity. […] This activity continues to decline to nearly 100 percent inhibition of the enzyme at higher herbicide concentrations ([…]). In contrast, the AHAS enzyme extracted from herbicide tolerant AP205CL plants retains nearly 90 percent of its activity at the […] imazamox concentration, and approximately one third of its activity at the higher (50 µM to 100 µM) concentrations. The AHAS enzyme extracted from herbicide tolerant AP602CL plants retains nearly 80-100 percent of its activity at the […] imazamox concentration, and nearly half of its activity at the higher ([…]) concentrations. These levels of activity are sufficient to allow the tolerant wheat plants to survive the application of imazamox, as was observed during the selection process (Example 1).
(§2) AHAS is known to be feedback inhibited by the branched chain amino acids. Valine and leucine in combination are especially effective inhibitors.

[2] = test system: AHAS enzyme extracted from herbicide tolerant AP205CL plants; assay: in vitro AHAS enzyme activity, enzyme extracted from AP205CL plants; assay type: biochemical, Triticum aestivum
Source text: as §1, §2

[3] = test system: AHAS enzyme extracted from herbicide tolerant AP602CL plants; assay: in vitro AHAS enzyme activity, enzyme extracted from AP602CL plants; assay type: biochemical, Triticum aestivum
Source text: as §1, §2

[4] = test system: AHAS extracted from Madsen1; assay: in vitro AHAS activity, Madsen1 compared to wild type Madsen; assay type: biochemical, Triticum aestivum
Source text: Because the tolerance in Madsen1 is due to a mutation in the AHAS enzyme rendering it resistant to inhibition by imidazolinone herbicides, the in vitro activity of AHAS extracted from wild type plants (not having the mutation for tolerance) can be compared to the in vitro activity of AHAS extracted from tolerant plants in the presence of varying concentrations of an imidazolinone (IMI) herbicide. Madsen1 was compared to the wild type variety Madsen.

Madsen1 wheat plants = assay: greenhouse trial of tolerance of Madsen1 to imazamox; assay type: in vivo, Triticum aestivum; settings: 40 and 80 g/ha, 14 days after treatment, control Teal
Experimental: Madsen1 was evaluated for tolerance to the imidazolinone herbicide imazamox at 40 and 80 g/ha in a greenhouse trial. The susceptible wheat cultivar Teal was used as a control. Evaluation was made 14 days after treatment. Injury was scored on a 0-9 scale, 0 representing no injury and 9 representing plant death.

Madsen1 wheat line = assay: selection of tolerant Madsen line (M2 field, M3 greenhouse); assay type: in vivo, Triticum aestivum
Experimental: Seeds of the soft white winter wheat variety Madsen, were pre-soaked in tap water. After decanting the tap water, a solution of 0.03% EMS and 0.02% DES was poured into the seed container. The container was shaken every 10-15 minutes during the course of a two-hour treatment. The EMS and DES solution was decanted and a solution of 0.02% sodium azide in 0.001 M phosphate buffer was added. The container again was shaken every 10-15 minutes during the course of a two-hour treatment. Seeds were then rinsed in tap water and dried. After drying, seeds were planted. Planted seeds represented the M1 generation. M1 plants were allowed to self-pollinate and the M2 seed harvested as a bulk. Approximately 0.2 hectares of M2 seed were planted in the field and resultant plants treated with an imazamox rate of 40 g. ai/ha. Twelve M2 plants were identified as tolerant. These plants were dug, and sent to Pullman, Wash. for vernalization and M3 seed production. M3 seed from each of the M2 plants were planted in the greenhouse and resultant plants were vernalized for 8 weeks, then treated with 80 g. ai/ha of Imazamox. Plants were selected based upon observed levels of tolerance and repotted for seed production. The M2:3 line designated Madsen1 selected as tolerant to 40 g/ha imazamox as an M2 was confirmed as tolerant to imazamox at the 80 g/ha rate applied to M3 progeny.

[5] = test system: HRS 198205 (AP205CL) wheat plants; assay: field plots and seed increases sprayed with imazamox, HRS 198205 / AP205CL; assay type: in vivo, Triticum aestivum
Experimental: (§3) Progeny seed of HRS 198205 and HRS198208 were collected and planted in the field. Field plots were sprayed with imazamox herbicide at 80 g. a.i./ha.+1.0% Sun-It adjuvant (v/v). […] Additionally, seed harvested from plots of five of the HRS198208 sub-lines were combined into a single lot that was designated AP602CL (referred to above as Gunner IMI 208). Seed increases were conducted at several locations. All seed increases were sprayed with imazamox herbicide at 40 g. a.i./ha+0.25% (v/v) non-ionic surfactant.

[6] = test system: HRS198208 (AP602CL) wheat plants; assay: field plots and seed increases sprayed with imazamox, HRS198208 / AP602CL; assay type: in vivo, Triticum aestivum
Experimental: as §3

COCc1cnc(C2=NC(C)(C(C)C)C(=O)N2)c(C(=O)O)c1 (stereo not drawn) [imazamox]
inhibition of the AHAS enzyme ([1]; higher herbicide concentrations (100 (unit uncertain))): ~100% | reduction of AHAS activity ([1]; low concentration (1 (unit uncertain)) of imazamox): 1 to 35% | AHAS activity retained ([2]; 1 M imazamox): ~90% | AHAS activity retained (fraction of its activity) ([2]; higher (50 M to 100 µM) imazamox concentrations): approximately one third | AHAS activity retained ([3]; 1 M imazamox): 80-100% | AHAS activity retained (fraction of its activity) ([3]; higher (50 µM to 100 µM) imazamox concentrations): half | residual uninhibited AHAS ([4]; 100 μM imazamox, Madsen1): sufficient to provide a herbicide tolerant response | uninhibited AHAS enzyme activity as imazamox concentration increased ([4]; Madsen1 compared to wild type Madsen): decreased faster in wild type lines than in Madsen) | tolerance (injury scored on a 0-9 scale) (Madsen1 wheat plants): has tolerance | tolerance of M2 plants (Madsen1 wheat line; 40 g/ha imazamox, field, M2): tolerant | tolerance of M3 progeny (Madsen1 wheat line; 80 g/ha imazamox, greenhouse, M3 progeny): tolerant | herbicide susceptible plants in seed increases ([5]; 40 g. a.i./ha + 0.25% (v/v) non-ionic surfactant, AP205CL): No herbicide susceptible plants were observed | tolerance in field plots ([5]; 80 g. a.i./ha + 1.0% Sun-It adjuvant (v/v), HRS 198205): same level of acceptable tolerance | herbicide susceptible plants in seed increases ([6]; 40 g. a.i./ha + 0.25% (v/v) non-ionic surfactant, AP602CL): No herbicide susceptible plants were observed | tolerance in field plots ([6]; 80 g. a.i./ha + 1.0% Sun-It adjuvant (v/v), HRS198208): same level of acceptable tolerance

From patent US11746343B2, “Wheat plants having increased resistance to imidazolinone herbicides” (Northwest Plant Breeding Company, priority 2001, dated 2023)
